Columns and labels:
Format in all cases: biochemical
plasmin = plasmin (Homo sapiens (Human), UniProt P00747); experiment: Determination of inhibition constants for human plasmin (chromogenic substrate); conditions: 25° C., Chromozym PL substrate; read-out: h plasmin Ki
Description: (§1) Determination of the Inhibition Constants for Human Plasmin (h Plasmin) and Human Plasma Kallikrein (h PK)
(§2) The inhibitory effect for the individual enzymes was determined in analogy to a previously disclosed method (Stürzebecher et al., J. Med. Chem., 40, 3091-3099 (1997)).
(§3) 200 μl of TBS (0.05 M trishydroxymethylaminomethane; 0.154 M NaCl, 2% ethanol, pH 8.0)
(§4) 25 μl of substrate (4 mM, 2 mM and 1 mM tosyl-Gly-Pro-Lys-pNA=Chromozym PL from LOXO for plasmin and 3 mM, 1.5 mM and 1 mM H-D-Pro-Phe-Arg-pNA=S2302 from Chromogenix for PK, dissolved in H2O)
(§5) 2 μL of a test compound solution in 50% v/v DMSO/water
(§6) 50 μl of enzyme solution (plasmin from Calbiochem: 1.7 mU/ml in 0.154 M NaCl+0.1% BSA m/v; plasma kallikrein from Enzyme Research Lab.: 62 ng/ml in 0.154 M NaCl+0.1% BSA m/v)
(§7) For zero order kinetics, the reaction was stopped after 20 min by adding 15 μl of acetic acid (80% v/v), and the absorption at 405 nm was determined using a Microplate Reader (Multiscan Ascent™, from Thermo). In the case of pseudo-first order kinetics, the reaction rates in the equilibrium state were determined by continuously recording the change in absorbance at 405 nm. The Ki values were calculated by parameter fitting in accordance with the rate equation for competitive inhibition using the GraFit software, version 4. The Ki values are the average of at least three determinations.

human alpha-thrombin = human alpha-thrombin (Homo sapiens (Human), UniProt P00734); experiment: Inhibition of human Factor IIa; conditions: Pefachrome tPA substrate; read-out: h FIIa Ki
Description: as §2, §3, §5, §7

human alpha-FXIIa = human alpha-FXIIa (Homo sapiens (Human), UniProt P00748); experiment: Inhibition of human alpha-Factor XIIa; conditions: CHA-Gly-Arg-pNA substrate; read-out: h FXIIa Ki
Description: as §2, §3, §5, §7

plasma kallikrein = plasma kallikrein (Homo sapiens (Human), UniProt P03952); experiment: Determination of inhibition constants for human plasma kallikrein (chromogenic substrate); conditions: 25° C., S2302 substrate; read-out: h PK Ki
Chain of plasma kallikrein (P03952 391-638): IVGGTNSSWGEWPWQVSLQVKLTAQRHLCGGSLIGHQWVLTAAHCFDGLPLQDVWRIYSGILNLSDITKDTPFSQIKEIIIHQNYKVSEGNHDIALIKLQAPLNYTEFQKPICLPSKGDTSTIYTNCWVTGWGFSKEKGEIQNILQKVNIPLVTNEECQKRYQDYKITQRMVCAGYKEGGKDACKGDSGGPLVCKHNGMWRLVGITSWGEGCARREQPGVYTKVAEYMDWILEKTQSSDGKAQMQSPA
Chain of plasma kallikrein (P03952 20-390 partner): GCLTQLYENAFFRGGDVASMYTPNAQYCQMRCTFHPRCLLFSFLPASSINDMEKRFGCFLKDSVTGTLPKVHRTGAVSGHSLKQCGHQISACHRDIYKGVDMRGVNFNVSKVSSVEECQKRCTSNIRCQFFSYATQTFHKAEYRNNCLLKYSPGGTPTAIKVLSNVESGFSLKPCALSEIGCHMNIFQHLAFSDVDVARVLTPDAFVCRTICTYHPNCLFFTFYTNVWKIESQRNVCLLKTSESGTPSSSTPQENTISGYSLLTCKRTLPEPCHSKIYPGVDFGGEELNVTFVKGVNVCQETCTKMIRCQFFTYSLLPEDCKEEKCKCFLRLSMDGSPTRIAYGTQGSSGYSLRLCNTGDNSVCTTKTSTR
Description: as §1, §2, §3, §4, §5, §6, §7

[1] = target: human activated protein C (Homo sapiens (Human), UniProt P04070); experiment: Inhibition of human activated protein C; conditions: Pefachrome PCa substrate; read-out: h aPC Ki
Chain of human activated protein C (P04070 212-450): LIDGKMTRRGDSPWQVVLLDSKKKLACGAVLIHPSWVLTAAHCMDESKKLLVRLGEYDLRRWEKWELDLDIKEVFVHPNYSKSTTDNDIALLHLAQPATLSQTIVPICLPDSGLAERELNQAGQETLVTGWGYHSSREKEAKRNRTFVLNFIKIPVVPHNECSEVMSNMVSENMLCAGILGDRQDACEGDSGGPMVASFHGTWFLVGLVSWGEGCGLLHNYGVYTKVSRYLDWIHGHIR
Chain of human activated protein C (P04070 43-197 partner): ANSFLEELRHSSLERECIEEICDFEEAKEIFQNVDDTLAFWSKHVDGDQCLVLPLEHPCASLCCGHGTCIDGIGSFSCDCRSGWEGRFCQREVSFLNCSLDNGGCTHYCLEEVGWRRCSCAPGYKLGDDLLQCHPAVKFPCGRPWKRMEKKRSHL
Description: as §2, §3, §5, §7

[2] = target: human activated C1r complement component (Homo sapiens (Human), UniProt P00736); experiment: Inhibition of human C1r; conditions: S2314 substrate; read-out: h C1r Ki
Chain of human activated C1r complement component (P00736 464-705): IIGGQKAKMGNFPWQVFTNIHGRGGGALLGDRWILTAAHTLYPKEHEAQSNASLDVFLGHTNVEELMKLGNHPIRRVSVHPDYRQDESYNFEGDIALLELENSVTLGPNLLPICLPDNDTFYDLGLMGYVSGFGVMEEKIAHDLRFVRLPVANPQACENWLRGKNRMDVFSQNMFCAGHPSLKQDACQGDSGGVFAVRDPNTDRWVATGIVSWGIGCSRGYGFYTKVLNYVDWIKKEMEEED
Chain of human activated C1r complement component (P00736 18-463 partner): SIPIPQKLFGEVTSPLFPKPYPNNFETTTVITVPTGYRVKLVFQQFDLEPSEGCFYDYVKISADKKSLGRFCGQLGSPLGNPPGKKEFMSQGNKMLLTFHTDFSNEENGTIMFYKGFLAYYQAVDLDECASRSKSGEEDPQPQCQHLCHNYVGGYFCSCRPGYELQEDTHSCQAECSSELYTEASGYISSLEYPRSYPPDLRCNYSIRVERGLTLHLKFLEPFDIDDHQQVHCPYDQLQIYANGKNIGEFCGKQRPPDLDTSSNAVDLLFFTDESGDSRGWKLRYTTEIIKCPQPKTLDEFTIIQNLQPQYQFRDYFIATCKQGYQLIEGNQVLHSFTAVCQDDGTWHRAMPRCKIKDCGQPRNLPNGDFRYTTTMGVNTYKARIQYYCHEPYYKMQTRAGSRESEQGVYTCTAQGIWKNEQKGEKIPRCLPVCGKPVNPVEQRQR
Description: as §2, §3, §5, §7

[3] = target: human activated C1s complement component (Homo sapiens (Human), UniProt P09871); experiment: Inhibition of human C1s; conditions: S2314 substrate; read-out: h C1s Ki
Chain of human activated C1s complement component (P09871 438-688): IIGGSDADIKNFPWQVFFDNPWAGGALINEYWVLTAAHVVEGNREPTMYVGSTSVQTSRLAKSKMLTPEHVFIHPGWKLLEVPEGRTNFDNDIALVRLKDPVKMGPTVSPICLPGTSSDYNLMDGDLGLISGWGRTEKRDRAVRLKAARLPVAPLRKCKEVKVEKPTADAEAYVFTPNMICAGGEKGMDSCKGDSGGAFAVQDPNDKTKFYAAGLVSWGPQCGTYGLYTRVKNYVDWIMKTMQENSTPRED
Chain of human activated C1s complement component (P09871 16-437 partner): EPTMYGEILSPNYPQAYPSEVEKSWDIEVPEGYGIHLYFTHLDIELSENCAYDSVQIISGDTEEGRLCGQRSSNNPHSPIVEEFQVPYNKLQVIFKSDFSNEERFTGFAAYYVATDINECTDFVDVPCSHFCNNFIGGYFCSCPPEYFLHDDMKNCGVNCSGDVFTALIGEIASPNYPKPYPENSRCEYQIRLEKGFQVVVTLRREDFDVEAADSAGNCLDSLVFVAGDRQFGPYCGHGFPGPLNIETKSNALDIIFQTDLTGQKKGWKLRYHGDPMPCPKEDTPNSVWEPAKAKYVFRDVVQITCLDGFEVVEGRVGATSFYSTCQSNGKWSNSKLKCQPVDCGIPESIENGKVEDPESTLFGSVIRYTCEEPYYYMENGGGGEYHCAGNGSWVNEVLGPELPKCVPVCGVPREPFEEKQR
Description: as §2, §3, §5, §7
Subcomponent “s” of Human Complement Component 1 (h C1s): Inhibition of human C1s was determined by the method described in [0092]-[0098] using native human activated C1s complement component from Calbiochem at 29 nM and Val-Ser-Arg-pNA (S2314) at 8 mM, 6 mM, and 4 mM as substrate; results are reported as Ki values (nanomolar).

human Factor XIa = human Factor XIa (Homo sapiens (Human), UniProt P03951); experiment: Inhibition of human Factor XIa; conditions: Pefachrome PCa substrate; read-out: h FXIa Ki
Chain of human Factor XIa (P03951 388-625): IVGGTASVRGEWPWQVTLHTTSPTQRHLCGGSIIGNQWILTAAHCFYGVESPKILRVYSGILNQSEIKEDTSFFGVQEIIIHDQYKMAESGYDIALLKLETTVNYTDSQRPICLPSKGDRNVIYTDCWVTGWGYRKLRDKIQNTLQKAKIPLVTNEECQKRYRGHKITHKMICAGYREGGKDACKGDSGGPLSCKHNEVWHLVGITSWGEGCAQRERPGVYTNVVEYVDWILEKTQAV
Chain of human Factor XIa (P03951 19-387 partner): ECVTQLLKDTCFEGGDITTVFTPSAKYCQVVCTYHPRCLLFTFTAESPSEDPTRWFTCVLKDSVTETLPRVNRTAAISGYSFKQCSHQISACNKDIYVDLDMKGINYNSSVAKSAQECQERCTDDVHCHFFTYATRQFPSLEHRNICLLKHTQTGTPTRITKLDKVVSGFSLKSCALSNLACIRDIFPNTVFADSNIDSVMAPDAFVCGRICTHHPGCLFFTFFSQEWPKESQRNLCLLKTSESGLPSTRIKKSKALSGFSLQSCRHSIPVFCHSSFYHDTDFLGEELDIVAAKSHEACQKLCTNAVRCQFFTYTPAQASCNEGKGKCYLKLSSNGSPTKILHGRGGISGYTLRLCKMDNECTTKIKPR
Description: as §2, §3, §5, §7

human urinary kallikrein = human urinary kallikrein (Homo sapiens (Human), UniProt P06870); experiment: Inhibition of human urinary kallikrein; conditions: S-2266 substrate; read-out: h uKK Ki
Description: as §2, §3, §5, §7

human Factor Xa = human Factor Xa (Homo sapiens (Human), UniProt P00742); experiment: Inhibition of human Factor Xa; conditions: Pefachrome FXa substrate; read-out: h FXa Ki
Chain of human Factor Xa (P00742 235-488): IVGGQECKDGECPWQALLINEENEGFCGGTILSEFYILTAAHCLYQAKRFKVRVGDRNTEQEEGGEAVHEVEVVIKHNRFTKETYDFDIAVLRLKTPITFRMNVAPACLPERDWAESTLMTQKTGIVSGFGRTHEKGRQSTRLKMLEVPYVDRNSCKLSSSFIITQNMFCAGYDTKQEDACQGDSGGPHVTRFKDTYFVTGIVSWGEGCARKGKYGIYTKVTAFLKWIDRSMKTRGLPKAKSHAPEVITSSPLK
Chain of human Factor Xa (P00742 41-179 partner): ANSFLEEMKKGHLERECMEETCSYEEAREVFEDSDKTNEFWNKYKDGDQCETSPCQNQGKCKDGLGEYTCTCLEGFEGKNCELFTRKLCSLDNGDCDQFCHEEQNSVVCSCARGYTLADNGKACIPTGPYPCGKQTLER
Description: The inhibitory effect for the individual enzymes was determined in analogy to a previously disclosed method (Stürzebecher et al., J. Med. […] In the case of pseudo-first order kinetics, the reaction rates in the equilibrium state were determined by continuously recording the change in absorbance at 405 nm. […] The Ki values are the average of at least three determinations. Human Factor Xa (h FXa): […]

human t-PA = human t-PA (Homo sapiens (Human), UniProt P00750); experiment: Inhibition of human tissue-type plasminogen activator; conditions: Pefachrome tPA substrate; read-out: h t-PA Ki
Chain of human t-PA (P00750 36-562): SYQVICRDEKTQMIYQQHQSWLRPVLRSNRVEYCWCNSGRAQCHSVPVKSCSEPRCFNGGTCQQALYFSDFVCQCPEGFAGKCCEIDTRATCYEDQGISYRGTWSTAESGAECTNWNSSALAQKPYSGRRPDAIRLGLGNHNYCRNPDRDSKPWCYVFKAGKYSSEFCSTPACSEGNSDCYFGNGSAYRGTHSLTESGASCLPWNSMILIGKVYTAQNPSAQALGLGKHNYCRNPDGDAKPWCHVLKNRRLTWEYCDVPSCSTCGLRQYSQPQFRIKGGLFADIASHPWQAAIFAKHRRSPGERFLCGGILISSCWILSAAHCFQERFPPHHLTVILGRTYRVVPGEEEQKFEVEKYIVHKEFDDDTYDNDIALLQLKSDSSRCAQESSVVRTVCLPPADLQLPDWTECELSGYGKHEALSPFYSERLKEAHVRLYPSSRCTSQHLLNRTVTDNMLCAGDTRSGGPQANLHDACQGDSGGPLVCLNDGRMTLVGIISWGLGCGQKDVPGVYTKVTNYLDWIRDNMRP
Description: as §2, §3, §5, §7

Chain of plasmin (P00747 581-810): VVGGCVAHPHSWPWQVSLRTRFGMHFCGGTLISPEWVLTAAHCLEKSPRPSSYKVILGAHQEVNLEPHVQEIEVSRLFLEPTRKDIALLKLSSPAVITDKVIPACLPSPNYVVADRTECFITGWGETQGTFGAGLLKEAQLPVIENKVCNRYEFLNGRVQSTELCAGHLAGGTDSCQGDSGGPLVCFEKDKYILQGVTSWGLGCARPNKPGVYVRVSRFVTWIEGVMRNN
Chain of plasmin (P00747 97-580 partner): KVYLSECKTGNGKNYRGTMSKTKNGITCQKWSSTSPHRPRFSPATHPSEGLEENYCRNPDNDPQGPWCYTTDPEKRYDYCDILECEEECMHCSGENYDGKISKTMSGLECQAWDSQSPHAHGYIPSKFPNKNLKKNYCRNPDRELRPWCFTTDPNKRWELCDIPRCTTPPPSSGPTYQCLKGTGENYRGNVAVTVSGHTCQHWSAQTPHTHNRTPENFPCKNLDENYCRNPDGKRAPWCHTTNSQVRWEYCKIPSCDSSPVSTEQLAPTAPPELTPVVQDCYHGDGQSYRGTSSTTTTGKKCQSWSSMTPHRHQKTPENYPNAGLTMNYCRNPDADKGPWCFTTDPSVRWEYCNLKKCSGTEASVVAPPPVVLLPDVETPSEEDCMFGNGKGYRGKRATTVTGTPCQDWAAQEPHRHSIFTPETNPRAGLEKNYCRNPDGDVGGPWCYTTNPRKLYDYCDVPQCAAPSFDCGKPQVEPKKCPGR

SMILES	Ki (plasmin)	Ki (human alpha-thrombin)	Ki (human alpha-FXIIa)	Ki (plasma kallikrein)	Ki [1]	Ki [2]	Ki [3]	Ki (human Factor XIa)	Ki (human urinary kallikrein)	Ki (human Factor Xa)	Ki (human t-PA)
COC(=O)c1cccc(CS(=O)(=O)N[C@H](CCCc2ccccc2)C(=O)N[C@@H](CCC2CCNCC2)C(=O)NCc2ccc(C(=N)N)cc2)c1	2.7 nM	920 nM	> 10000 nM	9.4 nM	570 nM	> 30000 nM	4800 nM	500 nM	> 20000 nM	5900 nM	3900 nM
CN(C)C(=O)N1CCC(CC[C@@H](NS(=O)(=O)Cc2ccccc2)C(=O)N[C@@H](CCC2CCNCC2)C(=O)NCc2ccc(C(=N)N)cc2)CC1	0.8 nM	13000 nM	2000 nM	4 nM	1600 nM	> 50000 nM	13000 nM	1500 nM	> 200000 nM	2500 nM	8300 nM
CC(=O)N1CCC(CC[C@@H](NS(=O)(=O)Cc2ccccc2)C(=O)N[C@@H](CCC2CCNCC2)C(=O)NCc2ccc(C(=N)N)cc2)CC1	1.8 nM	8000 nM	530 nM	5 nM	1200 nM	> 40000 nM	> 20000 nM	1400 nM	> 20000 nM	1900 nM	4800 nM
N=C(N)c1ccc(CNC(=O)[C@H](CCC2CCNCC2)NC(=O)[C@H](NS(=O)(=O)Cc2ccccc2)c2ccccc2)cc1	2.2 nM	1700 nM		20 nM	210 nM			1000 nM		1600 nM	
COCC(=O)N1CCC(CC[C@@H](NS(=O)(=O)Cc2ccccc2)C(=O)N[C@@H](CCC2CCNCC2)C(=O)NCc2ccc(C(=N)N)cc2)CC1	1.2 nM	4500 nM	680 nM	1.3 nM	1200 nM	> 50000 nM	20000 nM	1400 nM	> 100000 nM	1600 nM	4700 nM
N=C(N)c1ccc(CNC(=O)[C@H](CCC2CCNCC2)NC(=O)[C@@H](CCc2ccncc2)NS(=O)(=O)Cc2ccccc2)cc1	1.5 nM	3900 nM		9 nM	27 nM	> 20000 nM	2000 nM	500 nM	> 200000 nM	20 nM	
N=C(N)c1ccc(CNC(=O)[C@H](CCC2CCNCC2)NC(=O)[C@@H](CCC2CCN(C(=O)C3CC3)CC2)NS(=O)(=O)Cc2ccccc2)cc1	0.6 nM	8500 nM	1100 nM	0.3 nM	1500 nM	> 50000 nM	19000 nM	650 nM	> 50000 nM	2300 nM	6100 nM
COC(=O)N1CCC(CC[C@@H](NS(=O)(=O)Cc2ccccc2)C(=O)N[C@@H](CCC2CCNCC2)C(=O)NCc2ccc(C(=N)N)cc2)CC1	0.7 nM	13000 nM	1600 nM	2 nM	1350 nM	> 20000 nM	> 10000 nM	720 nM	> 200000 nM	2000 nM	6600 nM
N=C(N)c1ccc(CNC(=O)[C@H](CCC2CCNCC2)NC(=O)[C@@H](CCCc2ccccc2)NS(=O)(=O)Cc2cccc(C(=O)O)c2)cc1	3.8 nM	4400 nM		3 nM	310 nM	> 20000 nM	1200 nM	70 nM	> 20000 nM	2400 nM	
COC(=O)N1CCC(CCC[C@@H](NS(=O)(=O)Cc2ccccc2)C(=O)N[C@@H](CCC2CCNCC2)C(=O)NCc2ccc(C(=N)N)cc2)CC1	1 nM	3600 nM	400 nM	1.5 nM	800 nM	> 100000 nM	6500 nM	600 nM	> 100000 nM	400 nM	
N=C(N)c1ccc(CNC(=O)[C@H](CCC2CCNCC2)NC(=O)[C@@H](CCc2cc[n+]([O-])cc2)NS(=O)(=O)Cc2ccccc2)cc1	5 nM	9000 nM		20 nM	250 nM	> 50000 nM	4200 nM	2500 nM	> 100000 nM	120 nM	
CNC(=O)N1CCC(CC[C@@H](NS(=O)(=O)Cc2ccccc2)C(=O)N[C@@H](CCC2CCNCC2)C(=O)NCc2ccc(C(=N)N)cc2)CC1	1 nM	4800 nM	550 nM	2 nM	1100 nM	> 20000 nM	> 20000 nM	1300 nM	> 200000 nM	1700 nM	5300 nM
CC(C)C(=O)N1CCC(CC[C@@H](NS(=O)(=O)Cc2ccccc2)C(=O)N[C@@H](CCC2CCNCC2)C(=O)NCc2ccc(C(=N)N)cc2)CC1	0.6 nM	13000 nM	1300 nM	1.5 nM	1700 nM	> 30000 nM	> 25000 nM	920 nM	> 200000 nM	3200 nM	6500 nM
N=C(N)c1ccc(CNC(=O)[C@H](CCC2CCNCC2)NC(=O)[C@@H](CCCc2ccccc2)NS(=O)(=O)Cc2ccccc2)cc1	0.25 nM	240 nM	3000 nM	1.5 nM	555 nM		> 5000 nM	135 nM	> 50000 nM	1100 nM	1700 nM
CCC(=O)N1CCC(CC[C@@H](NS(=O)(=O)Cc2ccccc2)C(=O)N[C@@H](CCC2CCNCC2)C(=O)NCc2ccc(C(=N)N)cc2)CC1	0.8 nM	5600 nM	650 nM	0.9 nM	1200 nM	> 35000 nM	> 25000 nM	720 nM	> 60000 nM	2300 nM	5100 nM
N=C(N)c1ccc(CNC(=O)[C@H](CCC2CCNCC2)NC(=O)[C@@H](CCCC2CCNCC2)NS(=O)(=O)Cc2ccccc2)cc1	2 nM	800 nM		7.5 nM	400 nM	> 50000 nM	8000 nM	800 nM	> 50000 nM	300 nM	
CC(=O)N1CCC(CCC[C@@H](NS(=O)(=O)Cc2ccccc2)C(=O)N[C@@H](CCC2CCNCC2)C(=O)NCc2ccc(C(=N)N)cc2)CC1	1.5 nM	3800 nM	630 nM	2 nM	1100 nM	> 100000 nM	9000 nM	870 nM	> 500000 nM	750 nM	3000 nM
N=C(N)c1ccc(CNC(=O)[C@H](CCC2CCNCC2)NC(=O)[C@@H](CCC2CCNCC2)NS(=O)(=O)Cc2ccccc2)cc1	3 nM	4200 nM		7.5 nM	60 nM	> 100000 nM	> 25000 nM	1400 nM	> 100000 nM	90 nM	
N=C(N)c1ccc(CNC(=O)[C@H](CCC2CCNCC2)NC(=O)[C@@H](CCCn2cnnn2)NS(=O)(=O)Cc2ccccc2)cc1	8 nM	4700 nM		5.3 nM	1300 nM		> 10000 nM	1400 nM	> 200000 nM	2400 nM	

Source: patent US8598206B2, “Trypsin-like serine protease inhibitors, and their preparation and use” (The Medicines Company (Leipzig) GmbH, priority 2010, dated 2013)
